Source: patent US12226424B2, “Target protein degradation compounds, their anti-tumor use, their intermediates and use of intermediates” (ShanghaiTech University, priority 2018, dated 2025)
Read-outs that look alike come from different tables or passages of the source.

Test system: SR cells
Assay: Half inhibitory concentration (IC50) on ALK-positive SR cell proliferation (CCK-8)
Type: cell-based
Settings: Homo sapiens, read-out: IC50 (nM)/ SR cell line
Method: ALK-positive SR cells (human large cell immunoblastic lymphoma) were purchased from the American Type Culture Collection (ATCC); H3122 cells (human non-small cell lung cancer) were from the Shanghai University of Science and Technology Lin Haifan's research group.
The cells used in this present disclosure were cultured in a 37° C. incubator containing 5% CO2.
SR cells were seeded in 100 μL RPMI1640 complete medium at a density of 10,000 cells/well. 100 μL of the inoculated cells were treated with 0.5 μL diluted PROTAD compound of the present disclosure to be tested at 10 successively decreasing concentrations (starting at the highest concentration of 10 μM; 5-fold serial dilutions) After the cells were treated with the drug for 72 h, cell viability was determined according to the CCK-8 reagent operating instructions. The negative control was DMSO, and the positive control was a commercial inhibitor. After CCK-8 treatment for 2 h, the value of O.D.450 was measured using a microplate reader.

[1] = SR cells, 72 h drug treatment, CCK-8

SMILES	IC50 [1] [nM]	IC50 (SR, 72 h) [nM]
COc1cc(N2CCC(NC(=O)COCCOCCOCCSc3cccc4c3CN(C3CCC(=O)NC3=O)C4=O)CC2)ccc1Nc1ncc(Cl)c(Nc2ccccc2P(C)(C)=O)n1 (stereo not shown) [SIAIS219141, N-(1-(4-((5-chloro-4-((2-(dimethylphosphoryl)phenyl)amino)pyrimidin-2-yl)amino)-3-methoxyphenyl)piperidin-4-yl)-2-(2-(2-(2-((2-(2,6-dioxopiperidin-3-yl)-1-oxoisoindolin-4-yl)thio)ethoxy)ethoxy)ethoxy)acetamide]	5 ± 0.71	–
CCc1cc2c(cc1N1CCC(N3CCN(C(=O)COCCOCCOCCSc4cccc5c4CN(C4CCC(=O)NC4=O)C5=O)CC3)CC1)C(C)(C)c1[nH]c3cc(C#N)ccc3c1C2=O (stereo not shown) [SIAIS249068, 8-(4-(4-(2-(2-(2-(2-((2-(2,6-dioxopiperidin-3-yl)-1-oxoisoindolin-4-yl)thio)ethoxy)ethoxy)ethoxy)acetyl)piperazin-1-yl)piperidin-1-yl)-9-ethyl-6,6-dimethyl-11-oxo-6,11-dihydro-5H-benzo[b]carbazole-3-carbonitrile]	0.33 ± 0.06	–
CCc1cc2c(cc1N1CCC(N3CCN(CCSc4cccc5c4C(=O)N(C4CCC(=O)NC4=O)C5=O)CC3)CC1)C(C)(C)c1[nH]c3cc(C#N)ccc3c1C2=O (stereo not shown) [SIAIS262158, 8-(4-(4-(2-((2-(2,6-dioxopiperidin-3-yl)-1,3-dioxoisoindolin-4-yl)thio)ethyl)piperazin-1-yl)piperidin-1-yl)-9-ethyl-6,6-dimethyl-11-oxo-6,11-dihydro-5H-benzo[b]carbazole-3-carbonitrile]	2.9	–
COc1cc(N2CCC(NC(=O)CCCCCSc3cccc4c3CN(C3CCC(=O)NC3=O)C4=O)CC2)ccc1Nc1ncc(Cl)c(Nc2ccccc2P(C)(C)=O)n1 (stereo not shown) [SIAIS219137, N-(1-(4-((5-chloro-4-((2-(dimethylphosphoryl)phenyl)amino)pyrimidin-2-yl)amino)-3-methoxyphenyl)piperidin-4-yl)-6-((2-(2,6-dioxopiperidin-3-yl)-1-oxoisoindolin-4-yl)thio)hexanamide]	0.48 ± 0.05	–
COc1cc(N2CCC(NC(=O)CSc3cccc4c3CN(C3CCC(=O)NC3=O)C4=O)CC2)ccc1Nc1ncc(Cl)c(Nc2ccccc2P(C)(C)=O)n1 (stereo not shown) [SIAIS219133, N-(1-(4-((5-chloro-4-((2-(dimethylphosphoryl)phenyl)amino)pyrimidin-2-yl)amino)-3-methoxyphenyl)piperidin-4-yl)-2-((2-(2,6-dioxopiperidin-3-yl)-1-oxoisoindolin-4-yl)thio)acetamide]	2.9 ± 0.1	–
COc1cc(N2CCC(NC(=O)COCCOCCOCCOCCSc3cccc4c3CN(C3CCC(=O)NC3=O)C4=O)CC2)ccc1Nc1ncc(Cl)c(Nc2ccccc2P(C)(C)=O)n1 (stereo not shown) [SIAIS219142, N-(1-(4-((5-chloro-4-((2-(dimethylphosphoryl)phenyl)amino)pyrimidin-2-yl)amino)-3-methoxyphenyl)piperidin-4-yl)-14-((2-(2,6-dioxopiperidin-3-yl)-1-oxoisoindolin-4-yl)thio)-3,6,9,12-tetraoxatetradecan-1-amide]	7 ± 1	–
CCc1cc2c(cc1N1CCC(N3CCN(C(=O)COCCOCCOCCOCCSc4cccc5c4CN(C4CCC(=O)NC4=O)C5=O)CC3)CC1)C(C)(C)c1[nH]c3cc(C#N)ccc3c1C2=O (stereo not shown) [SIAIS249069, 8-(4-(4-(14-((2-(2,6-dioxopiperidin-3-yl)-1-oxoisoindolin-4-yl)thio)-3,6,9,12-tetraoxatetradecanoyl)piperazin-1-yl)piperidin-1-yl)-9-ethyl-6,6-dimethyl-11-oxo-6,11-dihydro-5H-benzo[b]carbazole-3-carbonitrile]	0.81 ± 0.28	–
CCc1cc2c(cc1N1CCC(NC(=O)CCCSc3cccc4c3C(=O)N(C3CCC(=O)NC3=O)C4=O)CC1)C(C)(C)c1[nH]c3cc(C#N)ccc3c1C2=O (stereo not shown) [SIAIS219013, N-(1-(3-cyano-9-ethyl-6,6-dimethyl-11-oxo-6,11-dihydro-5H-benzo[b]carbazol-8-yl)piperidin-4-yl)-4-((2-(2,6-dioxopiperidin-3-yl)-1,3-dioxoisoindolin-4-yl)thio)butanamide]	–	143
CCc1cc2c(cc1N1CCC(N3CCN(C(=O)CSc4cccc5c4CN(C4CCC(=O)NC4=O)C5=O)CC3)CC1)C(C)(C)c1[nH]c3cc(C#N)ccc3c1C2=O (stereo not shown) [SIAIS262096, 8-(4-(4-(2-((2-(2,6-dioxopiperidin-3-yl)-1-oxoisoindolin-4-yl)thio)acetyl)piperazin-1-yl)piperidin-1-yl)-9-ethyl-6,6-dimethyl-11-oxo-6,11-dihydro-5H-benzo[b]carbazole-3-carbonitrile]	0.22 ± 0.11	–
CCc1cc2c(cc1N1CCC(N3CCN(C(=O)CCSc4cccc5c4CN(C4CCC(=O)NC4=O)C5=O)CC3)CC1)C(C)(C)c1[nH]c3cc(C#N)ccc3c1C2=O (stereo not shown) [SIAIS262097, 8-(4-(4-(3-((2-(2,6-dioxopiperidin-3-yl)-1-oxoisoindolin-4-yl)thio)propanoyl)piperazin-1-yl)piperidin-1-yl)-9-ethyl-6,6-dimethyl-11-oxo-6,11-dihydro-5H-benzo[b]carbazole-3-carbonitrile]	3.89 ± 0.78	–
CCc1cc2c(cc1N1CCC(NC(=O)CCCCCSc3cccc4c3CN(C3CCC(=O)NC3=O)C4=O)CC1)C(C)(C)c1[nH]c3cc(C#N)ccc3c1C2=O (stereo not shown) [SIAIS262162, N-(1-(3-cyano-9-ethyl-6,6-dimethyl-11-oxo-6,11-dihydro-5H-benzo[b]carbazol-8-yl)piperidin-4-yl)-6-((2-(2,6-dioxopiperidin-3-yl)-1-oxoisoindolin-4-yl)thio)hexanamide]	11.3	–
COc1cc(N2CCC(NC(=O)COCCOCCOCCOCCOCCSc3cccc4c3CN(C3CCC(=O)NC3=O)C4=O)CC2)ccc1Nc1ncc(Cl)c(Nc2ccccc2P(C)(C)=O)n1 (stereo not shown) [SIAIS219143, N-(1-(4-((5-chloro-4-((2-(dimethylphosphoryl)phenyl)amino)pyrimidin-2-yl)amino)-3-methoxyphenyl)piperidin-4-yl)-17-((2-(2,6-dioxopiperidin-3-yl)-1-oxoisoindolin-4-yl)thio)-3,6,9,12,15-pentaoxaheptadecan-1-amide]	5.53 ± 1.28	–
CCc1cc2c(cc1N1CCC(N3CCN(C(=O)COCCOCCOCCOCCOCCSc4cccc5c4CN(C4CCC(=O)NC4=O)C5=O)CC3)CC1)C(C)(C)c1[nH]c3cc(C#N)ccc3c1C2=O (stereo not shown) [SIAIS249070, 8-(4-(4-(17-((2-(2,6-dioxopiperidin-3-yl)-1-oxoisoindolin-4-yl)thio)-3,6,9,12,15-pentaoxaheptadecanoyl)piperazin-1-yl)piperidin-1-yl)-9-ethyl-6,6-dimethyl-11-oxo-6,11-dihydro-5H-benzo[b]carbazole-3-carbonitrile]	0.43 ± 0.11	–
CCc1cc2c(cc1N1CCC(NC(=O)CSc3cccc4c3C(=O)N(C3CCC(=O)NC3=O)C4=O)CC1)C(C)(C)c1[nH]c3cc(C#N)ccc3c1C2=O (stereo not shown) [SIAIS219012, N-(1-(3-cyano-9-ethyl-6,6-dimethyl-11-oxo-6,11-dihydro-5H-benzo[b]carbazol-8-yl)piperidin-4-yl)-2-((2-(2,6-dioxopiperidin-3-yl)-1,3-dioxoisoindolin-4-yl)thio)acetamide]	146	–
CCc1cc2c(cc1N1CCC(NC(=O)COCCSc3cccc4c3CN(C3CCC(=O)NC3=O)C4=O)CC1)C(C)(C)c1[nH]c3cc(C#N)ccc3c1C2=O (stereo not shown) [SIAIS262163, N-(1-(3-cyano-9-ethyl-6,6-dimethyl-11-oxo-6,11-dihydro-5H-benzo[b]carbazol-8-yl)piperidin-4-yl)-2-(2-((2-(2,6-dioxopiperidin-3-yl)-1-oxoisoindolin-4-yl)thio)ethoxy)acetamide]	1.6	–
COc1cc(N2CCC(NC(=O)CCCSc3cccc4c3CN(C3CCC(=O)NC3=O)C4=O)CC2)ccc1Nc1ncc(Cl)c(Nc2ccccc2P(C)(C)=O)n1 (stereo not shown) [SIAIS219135, N-(1-(4-((5-chloro-4-((2-(dimethylphosphoryl)phenyl)amino)pyrimidin-2-yl)amino)-3-methoxyphenyl)piperidin-4-yl)-4-((2-(2,6-dioxopiperidin-3-yl)-1-oxoisoindolin-4-yl)thio)butanamide]	0.33 ± 0.02	–
CCc1cc2c(cc1N1CCC(N3CCN(C(=O)CCCCCCSc4cccc5c4CN(C4CCC(=O)NC4=O)C5=O)CC3)CC1)C(C)(C)c1[nH]c3cc(C#N)ccc3c1C2=O (stereo not shown) [SIAIS262101, 8-(4-(4-(7-((2-(2,6-dioxopiperidin-3-yl)-1-oxoisoindolin-4-yl)thio)heptanoyl)piperazin-1-yl)piperidin-1-yl)-9-ethyl-6,6-dimethyl-11-oxo-6,11-dihydro-5H-benzo[b]carbazole-3-carbonitrile]	2.94 ± 3.7	–
COc1cc(N2CCC(NC(=O)CCSc3cccc4c3CN(C3CCC(=O)NC3=O)C4=O)CC2)ccc1Nc1ncc(Cl)c(Nc2ccccc2P(C)(C)=O)n1 (stereo not shown) [SIAIS219134, N-(1-(4-((5-chloro-4-((2-(dimethylphosphoryl)phenyl)amino)pyrimidin-2-yl)amino)-3-methoxyphenyl)piperidin-4-yl)-3-((2-(2,6-dioxopiperidin-3-yl)-1-oxoisoindolin-4-yl)thio)propanamide]	2.7 ± 0.8	–
CCc1cc2c(cc1N1CCN(C3CCN(C(=O)CSc4cccc5c4C(=O)N(C4CCC(=O)NC4=O)C5=O)CC3)CC1)C(C)(C)c1[nH]c3cc(C#N)ccc3c1C2=O (stereo not shown) [SIAIS219005, 8-(4-(1-(2-((2-(2,6-dioxopiperidin-3-yl)-1,3-dioxoisoindolin-4-yl)thio)acetyl)piperidin-4-yl)piperazin-1-yl)-9-ethyl-6,6-dimethyl-11-oxo-6,11-dihydro-5H-benzo[b]carbazole-3-carbonitrile]	8.7	–
